Experimental data: patent US10155751B2, “Pyrazolyl-substituted heteroaryls and their use as medicaments” (Boehringer Ingelheim International GmbH, priority 2015, dated 2018)

Target: Recombinant human SYK (amino acids 342-635), GST-SYK kinase fusion protein (Homo sapiens (Human), UniProt P43405)
Experiment: SYK kinase inhibition test (Kinase Glo luminescence)
Assay type: biochemical
Settings: read-out: IC50(SYK) in SYK-inhibition assay
Method: The catalytic activity of the GST-SYK kinase fusion protein was determined using the Kinase Glo® Luminescence Kinase test (Promega; V6712). In this homogeneous test the amount of ATP remaining after the kinase reaction is quantified by a luciferin-luciferase reaction using luminescence. The luminescence signal obtained correlates with the amount of ATP still present and thus correlates inversely with the activity of the kinase.
The test compounds were dissolved in 100% DMSO at a concentration of 10 mM and diluted in DMSO to a concentration of 1 mM. Serial Dilution is done in 100% DMSO. All further dilutions of the substances were carried out with test buffer (25 mM HEPES pH7.5; 25 mM MgCl2; 5 mM MnCl2; 50 mM KCl; 0.2% HSA; 0.01% CHAPS; 100 μM Na3VO4; 0.5 mM DTT). Dilution steps and concentration range were adapted according to need. 7 μl aliquots of these dilutions were transferred into a 384-well Optiplate (Perkin Elmer, #6007290). GST-SYK was diluted to 12 nM in the test buffer and 5 μl of this dilution were used in the kinase test (final concentration of SYK=4 nM in a total volume of 15 μl). After 15 minutes incubation at room temperature 3 μl of a mixture of 750 nM ATP and 100 μg/ml poly (L-Glutamic acid L-Tyrosine 4:1), Fluka #81357) in test buffer were added to each well and the incubation was continued for a further 60 minutes at room temperature.
Positive controls are the reaction mixtures that contain no test substance; negative controls (blanks) are reaction mixtures that contain no kinase.
After 60 minutes, 10 μl Kinase-Glo® solution (Promega, Cat. # V6712) (heated to room temperature) were added to each well and incubation was continued for a further 15 minutes. The plates were read in Envision Luminescence Reader (Perkin-Elmer).
The output file of the reader is a csv file that contains the well number and measured relative light units (RLU). For data evaluation and calculation, the measurement of the negative control was set as 100% ctrl and the measurement of the positive control was set as 0% ctrl. Based on this values the % value for the measurement of each substance concentration was calculated using an Assay Explorer software (Accelrys). Normally, the % ctrl values calculated are between 0% and 100% values but may also occur outside these limits in individual cases based on variability or compound characteristics. The IC50-values were calculated from the % ctrl values using Assay Explorer software. Calculation: [y=(a−d)/(1+(x/c)^b)+d] a=low value, d=high value; x=conc M; c=IC50 M; b=hill; y=% ctrl.
Satisfying SYK inhibitory capacities are represented by an IC50(SYK)-Value measured by this assay of <10 nMol.

Structure (SMILES)	IC50 [nM]
C[C@@H](Oc1nc(-c2cnn(C(C)(C)C)c2)cc2ncn(C)c12)[C@H]1CNC(=O)C1 [example 3A.02, on page 196 of WO15017610, reference compound]	< 10
C[C@@H](Oc1cc(-c2cnn(C(C)(C)C)c2)cc2ncn(C)c12)[C@H]1CNC(=O)C1 [example 3B.22 on page 219 of WO15017610, reference compound]	< 10
Cc1cnn2cc(-c3cnn(C(C)(C)C)c3)nc(O[C@H](C)[C@H]3CNC(=O)C3)c12 [example 5.20 on page 506 of WO15017610, reference compound]	< 10
Cc1cnn2cc(-c3cnn(C(C)(C)C)c3)cc(O[C@H](C)[C@H]3CNC(=O)C3)c12 [example 6.09 on page 559 of WO15017610, reference compound]	< 10
Cc1cc2c(O[C@H](C)[C@H]3CNC(=O)C3)cc(-c3cnn(C(C)(C)C)c3)cn2n1 [example 6.60 on page 587 of WO15017610, reference compound]	10.3

Same assay, conditions: read-out: SYK inhibition IC50-value (chapter 5.1)

Structure (SMILES)	IC50 [nM]
C[C@@H](Oc1cc(-c2cnn(C3CCC3)c2)cc2nn(C)c(F)c12)[C@H]1CNC(=O)C1 [Example 1, (R)-4-{(R)-1-[6-(1-Cyclobutyl-1H-pyrazol-4-yl)-3-fluoro-2-methyl-2H-indazol-4-yloxy]-ethyl}-pyrrolidin-2-one]	1
CC(C)n1cc(-c2cc(O[C@H](C)[C@H]3CNC(=O)C3)c3c(F)n(C)nc3c2)cn1 [Example 2, (R)-4-{(R)-1-[3-Fluoro-6-(1-isopropyl-1H-pyrazol-4-yl)-2-methyl-2H-indazol-4-yloxy]-ethyl}-pyrrolidin-2-one]	1.3
Cc1c2c(O[C@H](C)[C@H]3CNC(=O)O3)nc(-c3cnn(C(C)(C)C)c3)cc2nn1C [Example 3, (R)-5-{(R)-1-[6-(1-tert-Butyl-1H-pyrazol-4-yl)-2,3-dimethyl-2H-pyrazolo[4,3-c]pyridin-4-yloxy]-ethyl}-oxazolidin-2-one]	2
Cc1c2c(O[C@H](C)[C@H]3CNC(=O)C3)nc(-c3c[nH]nc3C(C)(C)C)cc2nn1C [Example 4, (R)-4-{(R)-1-[6-(3-tert-Butyl-1H-pyrazol-4-yl)-2,3-dimeth-yl-2H-pyrazolo[4,3-c]pyridin-4-yloxy]-ethyl}-pyrrolidin-2-one]	2.2
C[C@@H](Oc1cc(-c2cnn(C3CC3)c2)cc2nn(C)c(F)c12)[C@H]1CNC(=O)C1 [Example 5, (R)-4-{(R)-1-[6-(1-Cycloprop-yl-1H-pyrazol-4-yl)-3-fluoro-2-methyl-2H-indazol-4-yloxy]-ethyl}-pyrrolidin-2-one]	3.3
C[C@@H](Oc1cc(-c2cnn(CC3CC3)c2)cc2nn(C)c(F)c12)[C@H]1CNC(=O)C1 [Example 6, (R)-4-{(R)-1-[6-(1-Cycloprop-ylmethyl-1H-pyrazol-4-yl)-3-fluoro-2-methyl-2H-indazol-4-yloxy]-ethyl}-pyrrolidin-2-one]	2.6
C[C@@H](Oc1cc(-c2cnn(C3CCC(F)(F)C3)c2)cc2nn(C)c(F)c12)[C@H]1CNC(=O)C1 (stereo partly shown) [Example 7]	1.3
Cc1c2c(O[C@H](C)[C@H]3CNC(=O)C3)cc(-c3cnn(CC4CC4)c3)cc2nn1C [Example 8, (R)-4-{(R)-1-[6-(1-Cyclopropylmethyl-1H-pyrazol-4-yl)-2,3-dimethyl-2H-indazol-4-yloxy]-ethyl}-pyrrolidin-2-one]	1.4
Cc1c2c(O[C@H](C)[C@H]3CNC(=O)C3)cc(-c3cnn([C@@H]4CCOC(C)(C)C4)c3)cc2nn1C [Example 9, (R)-4-((R)-1-{6-[1-((R)-2,2-Dimethyl-tetrahydro-pyran-4-yl)-1H-pyrazol-4-yl]-2,3-dimethyl-2H-indazol-4-yloxy}-ethyl)-pyrrolidin-2-one]	1.1
Cc1c2c(O[C@H](C)[C@H]3CNC(=O)C3)cc(-c3cnn([C@H]4CO[C@@H]5CCCO[C@@H]54)c3)cc2nn1C [Example 10, 4-(1-{6-[(R)-(3S,3aR,7aR)-1-(Hexahydro-furo[3,2-b]pyran-3-yl)-1H-pyrazol-4-yl]-2,3-dimethyl-2H-indazol-4-yloxy}-ethyl)-pyrrolidin-2-one]	3.3
Cc1c2c(O[C@H](C)[C@H]3CNC(=O)C3)cc(-c3cnn(CCF)c3)cc2nn1C [Example 11, (R)-4-((R)-1-{6-[1-(2-Fluoro-ethyl)-1H-pyrazol-4-yl]-2,3-dimethyl-2H-indazol-4-yloxy}-ethyl)-pyrrolidin-2-one]	1.5
C[C@@H](Oc1cc(-c2cnn(CCC(F)(F)F)c2)cc2nn(C)c(F)c12)[C@H]1CNC(=O)C1 [Example 12, (R)-4-((R)-1-{3-Fluoro-2-methyl-6-[1-(3,3,3-trifluoro-propyl)-1H-pyrazol-4-yl]-2H-indazol-4-yloxy}-ethyl)-pyrrolidin-2-one]	2.9
Cc1c2c(O[C@H](C)[C@H]3CNC(=O)C3)cc(-c3cnn(C(C)(C)C)c3)cc2nn1C [Example 13, (R)-4-{(R)-1-[6-(1-tert-Butyl-1H-pyrazol-4-yl)-2,3-dimethyl-2H-indazol-4-yloxy]-ethyl}-pyrrolidin-2-one]	0.9
C[C@@H](Oc1cc(-c2cnn(C3CC(C)(C)OC3(C)C)c2)cc2nn(C)c(F)c12)[C@H]1CNC(=O)C1 (stereo partly drawn) [Example 14, (R)-4-((R)-1-{3-Fluoro-2-methyl-6-[1-(2,2,5,5-tetramethyl-tetrahydro-furan-3-yl)-1H-pyrazol-4-yl]-2H-indazol-4-yloxy}-ethyl)-pyrrolidin-2-one]	3.2
Cc1c2c(O[C@H](C)[C@H]3CNC(=O)C3)cc(-c3cnn(C4CC(C)(C)OC4(C)C)c3)cc2nn1C (stereo partly drawn) [Example 16, (R)-4-((R)-1-{2,3-Dimethyl-6-[1-(2,2,5,5-tetramethyl-tetrahydro-furan-3-yl)-1H-pyrazol-4-yl]2H-indazol-4-yloxy}-ethyl)-pyrrolidin-2-one]	3.1
Cc1c2c(O[C@H](C)[C@H]3CNC(=O)C3)cc(-c3cnn(C(C)(C)C#N)c3)cc2nn1C [Example 17, 2-(4-{2,3-Dimethyl-4-[(R)-1-((R)-5-oxo-pyrrolidin-3-yl)-ethoxy]-2H-indazol-6-yl}-pyrazol-1-yl)-2-methyl-propionitrile]	2.9
Cc1c2c(O[C@H](C)[C@H]3CNC(=O)C3)cc(-c3cnn(C(C)C)c3)cc2nn1C [Example 18, (R)-4-{(R)-1-[6-(1-Isopropyl-1H-pyrazol-4-yl)-2,3-dimethyl-2H-indazol-4-yloxy]-ethyl}-pyrrolidin-2-one]	1.1
Cc1c2c(O[C@H](C)[C@H]3CNC(=O)C3)cc(-c3cnn(CC(C)C)c3)cc2nn1C [Example 19, (R)-4-{(R)-1-[6-(1-Isobutyl-1H-pyrazol-4-yl)-2,3-dimethyl-2H-indazol-4-yloxy]-ethyl}-pyrrolidin-2-one]	1.8
Cc1c2c(O[C@H](C)[C@H]3CNC(=O)C3)cc(-c3cnn(C4CC4)c3)cc2nn1C [Example 20, (R)-4-{(R)-1-[6-(1-Cyclopropyl-1H-pyrazol-4-yl)-2,3-dimethyl-2H-indazol-4-yloxy]-ethyl}-pyrrolidin-2-one]	2.5
Cc1c2c(O[C@H](C)[C@H]3CNC(=O)C3)cc(-c3cnn(C4CCC4)c3)cc2nn1C [Example 21, (R)-4-{(R)-1-[6-(1-Cyclobutyl-1H-pyrazol-4-yl)-2,3-dimethyl-2H-indazol-4-yloxy]-ethyl}-pyrrolidin-2-one]	1.2
Cc1c2c(O[C@H](C)[C@H]3CNC(=O)C3)cc(-c3cnn(C4CCC(F)(F)C4)c3)cc2nn1C (stereo partly drawn) [Example 22, (R)-4-((R)-1-{6-[1-(3,3-Difluoro-cyclopentyl)-1H-pyrazol-4-yl]-2,3-dimethyl-2H-indazol-4-yloxy}-ethyl)-pyrrolidin-2-one]	1.2
C[C@@H](Oc1nc(-c2cnn(C(C)(C)C)c2)cc2ncn(C)c12)[C@H]1CNC(=O)C1 [example 3A.02, on page 196 of WO15017610, reference compound]	1.9
C[C@@H](Oc1cc(-c2cnn(C(C)(C)C)c2)cc2ncn(C)c12)[C@H]1CNC(=O)C1 [example 3B.22 on page 219 of WO15017610, reference compound]	0.8
Cc1cnn2cc(-c3cnn(C(C)(C)C)c3)nc(O[C@H](C)[C@H]3CNC(=O)C3)c12 [example 5.20 on page 506 of WO15017610, reference compound]	0.2
Cc1cnn2cc(-c3cnn(C(C)(C)C)c3)cc(O[C@H](C)[C@H]3CNC(=O)C3)c12 [example 6.09 on page 559 of WO15017610, reference compound]	0.1
Cc1cc2c(O[C@H](C)[C@H]3CNC(=O)C3)cc(-c3cnn(C(C)(C)C)c3)cn2n1 [example 6.60 on page 587 of WO15017610, reference compound]	10.3
